What was measured:
NOS = test: Partial inhibition of NOS by L-NAME in lambs (acetylcholine / sodium nitroprusside vasodilation, hemodynamics); type: in vivo
Protocol: (§1) Three additional groups of lambs were studied after intravenous infusion of the NOS inhibitor, N^G-nitro-L-arginine methyl-ester (L-NAME, Sigma-Aldrich, St. Louis, Mo.). A bolus of 25 mg/kg L-NAME was injected IV 1 h before transfusion (Weimann et al., Anesthesiology 2000; 92:1702-12). Concomitantly, an infusion of 5 mg/kg/h L-NAME was started and continued throughout the study. […] NOS-independent systemic vasodilation was also assessed by intravenous injection of sodium nitroprusside (Sigma-Aldrich) at the end of each experiment.

supernatant hemoglobin [1] = biological target: T1, supernatant hemoglobin (Mus musculus, UniProt P01942+P02088); test: MAHMA/NO treatment of murine stored red blood cells; type: biochemical; settings: murine RBC stored 14 days
T1 construct: from tissue; host or cells: murine stored red blood cells (14 days), supernatant
T1 sequence (P01942 2-142 limits assumed): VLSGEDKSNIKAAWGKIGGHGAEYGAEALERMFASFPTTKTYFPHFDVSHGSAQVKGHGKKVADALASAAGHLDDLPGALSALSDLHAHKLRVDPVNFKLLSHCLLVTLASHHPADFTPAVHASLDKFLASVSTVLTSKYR
T1 sequence (P02088 2-147 limits assumed): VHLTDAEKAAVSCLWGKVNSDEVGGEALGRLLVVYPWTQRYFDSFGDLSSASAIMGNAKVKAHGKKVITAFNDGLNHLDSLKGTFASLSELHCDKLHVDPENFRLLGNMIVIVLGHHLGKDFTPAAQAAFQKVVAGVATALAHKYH
From the text: This is likely due to the higher levels of hemolysis observed in murine red blood cell storage. At baseline levels, hemolysis is higher than in human stored red blood cells, and increasing concentrations of MAHMA/NO were required to fully oxidize the […] hemoglobin.

[2] = Tail-cuff systolic blood pressure in db/db mice after infusion of MAHMA/NO pre-treated stored red blood cells; type: in vivo; settings: SRBC pre-treated with 1 mM MAHMA/NO; awake db/db mice
Protocol: Murine stored red blood cells were pretreated with 1 mM MAHMA before infusion into db/db mice.

supernatant hemoglobin [3] = biological target: T2, supernatant hemoglobin (Homo sapiens, UniProt P68871+P69905); test: MAHMA/NO treatment of human stored red blood cells; type: biochemical; settings: human RBC stored 46 days
T2 construct: 99% of the supernatant hemoglobin being oxidized to methemoglobin; from tissue; host or cells: human stored red blood cells (46 days), supernatant and cells
T2 sequence (P69905 2-142 limits assumed): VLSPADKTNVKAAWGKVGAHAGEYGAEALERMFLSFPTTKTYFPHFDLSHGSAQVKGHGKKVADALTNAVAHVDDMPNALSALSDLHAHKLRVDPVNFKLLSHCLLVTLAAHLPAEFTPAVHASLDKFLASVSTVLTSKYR
T2 sequence (P68871 2-147 limits assumed): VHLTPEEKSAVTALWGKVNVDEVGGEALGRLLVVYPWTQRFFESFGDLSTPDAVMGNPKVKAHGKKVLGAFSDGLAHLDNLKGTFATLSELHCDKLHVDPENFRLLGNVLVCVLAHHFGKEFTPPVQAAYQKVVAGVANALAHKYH
Protocol: Human stored red blood cells (stored, 46 days) were treated with MAHMA/NO ((Z)-1-[N-Methyl-N-[6-(N-methylammoniohexyl)amino]]diazen-1-ium-1,2-diolate). […] In contrast, only 15% of the red blood cell hemoglobin was oxidized by this treatment (FIG. 14A).

[4] = Non-invasive measurement of systolic blood pressure in awake mice after transfusion; type: in vivo; settings: awake db/db mice; 80 ppm from 10 min prior to transfusion until 2 h after
Protocol: Systolic blood pressure was measured with a non-invasive blood pressure system (XBP 1000, Kent Scientific, Torrington, Conn.) (Yu et al., Circulation 2008; 117: 1982-90; Yu et al., Anesthesiology 2010; 112: 586-94). All tail vein injections were performed over one minute.

[5] = Hemodynamic effects of PRBC transfusion in lamb model of L-NAME-induced endothelial dysfunction; type: in vivo; settings: lambs pretreated with L-NAME
Protocol: (§2) Invasive hemodynamic measurements were performed in 28 lambs. Anesthesia was induced by breathing 5% isoflurane (Baxter, Deerfield, Ill.) in oxygen via mask. After endotracheal intubation, animals underwent a tracheostomy and were instrumented with indwelling carotid artery and pulmonary artery catheters, as previously described (Yu et al., Anesthesiology 2010; 112:586-94). After a 2-h recovery period from general anesthesia in a large-animal restraint unit (Lomir, Malone, N.Y.), the mean arterial pressure (MAP), mean pulmonary arterial pressure (PAP), and central venous pressure were monitored continuously using a Gould 6600 amplifier system (Gould Electronics, Inc., Eastlake, Ohio). Pulmonary capillary wedge pressure (PCWP) and heart rate were intermittently measured every 10-30 min. Cardiac output was assessed by thermal dilution as the average of three measurements after intravenous bolus-injection of 10 ml ice-cold saline solution. Systemic vascular resistance index and pulmonary vascular resistance index (PVRI), as well as cardiac index, were calculated using standard formulae. Hemodynamic data was collected until 4 h after the end of transfusion.
as §1
After L-NAME treatment, a fourth group of lambs (n=4) received fresh PRBCs, and a fifth group (n=5) received stored PRBCs. In the sixth group (n=4), following L-NAME injection, inhalation of 80 ppm nitric oxide at FiO2 0.25 was commenced 10 min prior to transfusion of stored PRBC. Nitric oxide breathing continued throughout the transfusion and for 30 min after transfusion ended.

[6] = Hemodynamic effects of PRBC transfusion in awake lambs; type: in vivo; settings: 80 ppm during transfusion and 30 min thereafter, no L-NAME
Protocol: as §2
Six groups of awake lambs were studied. […]

human hemoglobin = biological target: T3, human hemoglobin (Homo sapiens, UniProt P68871+P69905); test: Methemoglobin conversion after nitric oxide gas treatment of red blood cells via membrane gas exchanger; type: biochemical; settings: 2600 ppm nitric oxide in nitrogen, single pass
T3 construct: from tissue; host or cells: human red blood cells (adsol-preserved) plus plasma with added human hemoglobin
T3 sequence (P69905 2-142 limits assumed): as the sequence (P69905 2-142 limits assumed) above
T3 sequence (P68871 2-147 limits assumed): as the sequence (P68871 2-147 limits assumed) above
Protocol: Plasma containing added human hemoglobin was added to adsol-preserved human red blood cells. The red blood cells were pumped (at flow rates of 5, 7.5, and 10 ml/min) through a membrane gas exchanger (Living Systems instrumentation Inc., St. Albans, Vt.), which exposed the cells (on a single pass through the gas exchanger) to 2600 ppm nitric oxide gas in nitrogen.

[7] = 25 mg/kg IV bolus plus 5 mg/kg/h infusion

## COC(=O)[C@@H](N)CCCNC(=N)N[N+](=O)[O-] [L-NAME, N^G-nitro-L-arginine methyl-ester]
NOS; [7]
  Reduction in the ability of acetylcholine infusion to induce systemic vasodilation: 50%
  Vasodilator response to intravenous bolus of sodium nitroprusside: did not alter the vasodilator response
NOS; awake lambs
  Cardiac index and heart rate after L-NAME infusion: decreased
  MAP, PAP, central venous pressure, PCWP, systemic and pulmonary vascular resistance indices after L-NAME infusion: increased

## CNCCCCCCN(C)/[N+]([O-])=N/O [MAHMA/NO, (Z)-1-[N-Methyl-N-[6-(N-methylammoniohexyl)amino]]diazen-1-ium-1,2-diolate]
Supernatant hemoglobin [1]; 1 mM
  Supernatant methemoglobin: 70%
Supernatant hemoglobin [1]
  Level of cell-free hemoglobin in the supernatant: decreases upon addition of MAHMA/NO
[2]
  Hypertensive effect caused by infusion of stored red blood cells: attenuated the hypertensive effect
Supernatant hemoglobin [3]; 0.5 mM
  Red blood cell hemoglobin oxidized: 15%
  Supernatant hemoglobin oxidized to methemoglobin: 99%
Supernatant hemoglobin [3]
  Hemolysis after addition of MAHMA/NO: no further hemolysis

## [N]=O [nitric oxide]
[4]
  Effect of breathing nitric oxide on systemic hypertension induced by SRBC transfusion: completely prevented the systemic hypertension
[5]; 80 ppm
  Effect of inhalation of nitric oxide on MAP: did not alter MAP
[5]; 80 ppm, stored PRBC transfusion
  Effect of concurrent inhalation of nitric oxide on PAP and PVRI: reduced the PAP and PVRI to baseline
[5]
  Time after end of nitric oxide breathing at which PAP and PVRI returned to pre-transfusion levels: 60 min
[6]; baseline 12±1
  PAP with transfusion of stored PRBCs while breathing nitric oxide: 13±1 mmHg
[6]; baseline 107±14
  PVRI with transfusion of stored PRBCs while breathing nitric oxide: 105±22 dyn·sec·cm^−5·m^−2
Human hemoglobin
  Human red cell hemoglobin converted to methemoglobin: only a few percent
Human hemoglobin; flow 5, 7.5, 10 ml/min, adsol-preserved human RBC
  Supernatant oxyhemoglobin converted to methemoglobin: approximately 50%

— patent publication US9572833B2, “Treatment of red blood cells” (The General Hospital Corporation, priority 2011, dated 2017)
